Where a name gives a salt, the structure may show the parent alone. Read-outs that look alike come from different tables or passages of the source.
Target: T1, Full length human TNNI3K (hTNNI3K) (Homo sapiens, UniProt Q59H18)
T1 construct: His-MBP-TEV-Full length human TNNI3K (hTNNI3K); His (N); MBP (N); TEV cleavage site (N); made in house; host or cells: baculovirus expression system (printed 'Baculokinase system')
T1 sequence (Q59H18 1-835): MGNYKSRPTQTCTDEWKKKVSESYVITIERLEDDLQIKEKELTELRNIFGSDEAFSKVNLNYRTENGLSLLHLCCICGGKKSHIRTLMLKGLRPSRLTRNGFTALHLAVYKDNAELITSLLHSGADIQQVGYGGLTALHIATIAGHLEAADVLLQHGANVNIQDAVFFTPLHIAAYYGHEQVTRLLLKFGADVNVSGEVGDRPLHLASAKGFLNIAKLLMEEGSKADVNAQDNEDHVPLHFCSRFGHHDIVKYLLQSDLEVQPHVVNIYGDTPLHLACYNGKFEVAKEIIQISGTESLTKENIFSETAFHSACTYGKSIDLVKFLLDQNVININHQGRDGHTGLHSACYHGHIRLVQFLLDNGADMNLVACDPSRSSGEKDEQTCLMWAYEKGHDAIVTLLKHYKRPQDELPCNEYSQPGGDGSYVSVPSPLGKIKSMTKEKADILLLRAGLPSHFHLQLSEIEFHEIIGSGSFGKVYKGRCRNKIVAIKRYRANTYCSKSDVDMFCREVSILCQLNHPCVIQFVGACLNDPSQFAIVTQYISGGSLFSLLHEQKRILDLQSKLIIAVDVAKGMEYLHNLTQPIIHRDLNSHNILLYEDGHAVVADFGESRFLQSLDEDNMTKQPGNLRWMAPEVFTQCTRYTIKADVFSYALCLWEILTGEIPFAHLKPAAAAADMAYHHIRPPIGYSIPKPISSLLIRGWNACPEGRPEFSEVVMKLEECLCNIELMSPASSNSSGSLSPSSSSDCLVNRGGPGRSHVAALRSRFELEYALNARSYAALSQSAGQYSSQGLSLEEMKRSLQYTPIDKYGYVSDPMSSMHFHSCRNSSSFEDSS
Assay: Fluorescent polarization assay of compound inhibition on hTNNI3K ATP binding (Biological Assay Method I)
Excerpt: Materials: His-MBP-TEV-Full length human TNNI3K (hTNNI3K) was expressed in Baculokinase system and purified from amylase affinity column followed by Superdex200. […] The preparation of this fluorescent ligand is disclosed in U.S. Provisional Patent Application No. 61/237,815 filed Aug. 28, 2009, the disclosure of which is incorporated by reference herein. The other buffer components, including MgCl2 (Catalog Number M1028), Bis-Tris (Catalog Number B7535), DTT (Catalog Number D9779) and Chaps (Catalog Number C3023) were purchased from Sigma-Aldrich.
A fluorescent polarization assay was used to determine does response of compound inhibition on hTNNI3K ATP binding. […]
Fifty (50) nL of inhibitors in DMSO (or DMSO controls) were stamped into a 384-well low volume Greiner black plate, followed by addition of 5 μL of Solution 1 to column 18 and 5 μL Solution 2 to columns 1-17 and 19-24 of the plate. […] After that, the fluorescent polarization was measured on Analyst (ex/em: 485/530 nm, Dichroic: 505). […]

| SMILES | IC50 [nM] | IC50 (mean of a minimum of 2 experiments, displacement of fluorescent ligand from hTNNI3K ATP binding pocket, 60 min at rt, read-out: pXC50 (the source's name) (converted)) [nM] |
| --- | --- | --- |
| CNS(=O)(=O)c1cccc(Nc2cc(Nc3ccccc3)ncn2)c1 [Example 55, N-methyl-3-{[6-(phenylamino)-4-pyrimidinyl]amino}benzenesulfonamide trifluoroacetate] | ~100 | – |
| CNS(=O)(=O)c1cccc(Nc2cc(Nc3nc(C)co3)ncn2)c1 [Example 284, N-methyl-3-({6-[(4-methyl-1,3-oxazol-2-yl)amino]-4-pyrimidinyl}amino)benzenesulfonamide] | – | ~100 |

Reference: US20120329784A1, “COMPOUNDS AND METHODS” (priority 2010, published 2012)
